Where two headings read alike, the source gives them in different places. Non-standard residues stand in square brackets, D forms with d. Residues, ends and D or L forms follow the SMILES beside them. Nle = CCCC[C@H](N)C(=O)O
Columns and labels:
murine red blood cells = assay: Red blood cell hemolysis; type: cell-based, mouse
Method: Selectivity of cyclic peptides for bacterial over mammalian cells was evaluated by measuring red blood cell hemolytic activities as described in Tosteson, M. T. Holmes, S. J., Razin, M. and Tosteson, D. C. Melittin Lysis of Red Cells, J. Membrane Biol. 87, 35-44(1985). Heparinized murine blood was centrifuged at 1000×g for 10 minutes. The supernatant and the buffy coat were removed. Erythrocytes were washed three times with 0.9% saline solution and then resuspended to a concentration of 5% in saline containing 10% FBS (v/v). Red blood cells were then treated with serial dilutions of test peptides in a 96 well plate at 37° C. for 30 minutes. Control samples included a saline solution arid 1% Triton X-100 as 0 and 100% hemolysis, respectively. In some cases, mellitin was used as a further control. Mellitin is a linear peptide that is hemolytic against mammalian red blood cells in vitro at a concentration of about 10 μg/ml. Plates were centrifuged at 1000 g for 10 minutes. Aliquots of the supernatant were diluted 2 times with saline solution and the absorbance was measured at 560 nm.

[1] = system: S. aureus (MRSA) ATCC 33591; type: cell-based, Staphylococcus aureus; settings: Table 9, media b: cation adjusted Meuller Hinton broth (MHBII)
Method: (§1) The antimicrobial activity of the peptides was determined using a broth dilution assay essentially as descried in the guidelines of the National Committee for […] (NCCLS) [National Committee for Clinical Laboratory Standards. Methods for dilution antimicrobial susceptibility tests for bacteria that grow aerobically. Fourth edition. Approved Standard (1997). Document M7-A4. […] The microdilution method has the advantages of requiring less amount of peptide for each assay and the possibility of multiple simultaneous inoculations and was used in most studies. Several of the strains of bacteria tested are further described in Table 3.
(§2) Preparation of peptide solutions. Stock peptide solutions were prepared in 5% DMSO in aq. sucrose (9%). Determination of peptide concentrations was done by quantitative HPLC analysis using known concentrations of internal standards and/or by measuring UV absorption of tryptophane-containing peptide solutions in H2O (λ=280 εTrp: 5690). Serial 2-fold dilutions were made in the above DMSO/aq. sucrose (9%) mixture with concentrations ranging approximately 400-2 μg/ml and aliquots were dispensed in test tubes (100 μl) for the macrodilution test or in microtiter plates (20 μl) for the microdilution assays.
(§3) Inoculum preparation. Overnight cultures of different microorganisms grown in suitable media were diluted 4000 times to an approximate inoculum size of 2.5×10^5 cfu/ml.
(§4) Macrodilution method. Macrodilution methods were performed using procedures similar to those described in the National Committee for Clinical Laboratory Standards. Methods for dilution antimicrobial susceptibility tests for bacteria that grow aerobically. Fourth edition. Approved Standard (1997). Document M7-A4. (NCCLS,Villanova, Pa., 1997). Two ml aliquots of the above inoculum were dispensed to test tubes containing different peptide solutions.
(§5) Microdilution method. Microdilution methods were performed using procedures similar to those described in the National Committee for Clinical Laboratory Standards. Methods for dilution antimicrobial susceptibility tests for bacteria that grow aerobically. Fourth edition. Approved Standard (1997). Document M7-A4.

[2] = system: vancomycin-resistant Enterococus faecalis (VRE)(ATCC 51575); type: cell-based, Enterococcus faecalis; parameters: key to VRE (in vitro activity): peptide concentration in μg/ml (broth dilution assay); settings: Table 9
Method: as §1, §2, §3, §4, §5

[3] = media c: Brain Heart Infusion (BHI)

CC(C)C[C@H]1NC(=O)[C@H](CCCCN)NC(=O)[C@@H](Cc2c[nH]cn2)NC(=O)[C@H](CCCCN)NC(=O)[C@@H](CC(C)C)NC(=O)[C@H](Cc2ccccc2)NC(=O)[C@@H](CC(C)C)NC(=O)[C@H](Cc2ccccc2)NC1=O [SEQ ID NO:48, [KHKLFLFL]] (cyclo(K[dH]K[dL]F[dL]F[dL]))
RBC Hemolysis (HD50) (murine red blood cells): >220
MRSA (in vitro activity) [1]: 7
VRE (in vitro activity) [2, 3]: 13

CC(C)C[C@H]1NC(=O)[C@H](CCCCN)NC(=O)[C@@H](Cc2c[nH]cn2)NC(=O)[C@H](CCCCN)NC(=O)[C@@H](CC(C)C)NC(=O)[C@H](Cc2c[nH]c3ccccc23)NC(=O)[C@@H](CC(C)C)NC(=O)[C@H](Cc2ccccc2)NC1=O [SEQ ID NO:49, [KHKLFLWL]] (cyclo(K[dH]K[dL]F[dL]W[dL]))
RBC Hemolysis (HD50) (murine red blood cells): 200
MRSA (in vitro activity) [1]: 12
VRE (in vitro activity) [2, 3]: 25

CC(C)C[C@H]1NC(=O)[C@H](CCCCN)NC(=O)[C@@H](Cc2c[nH]cn2)NC(=O)[C@H](CCCCN)NC(=O)[C@@H](CC(C)C)NC(=O)[C@H](Cc2c[nH]c3ccccc23)NC(=O)[C@@H](CC(C)C)NC(=O)[C@H](Cc2c[nH]c3ccccc23)NC1=O [SEQ ID NO:50, [KHKLWLWL]] (cyclo(K[dH]K[dL]W[dL]W[dL]))
RBC Hemolysis (HD50) (murine red blood cells): 150
MRSA (in vitro activity) [1]: 9
VRE (in vitro activity) [2, 3]: 18

CC(C)C[C@@H]1NC(=O)[C@@H](Cc2ccccc2)NC(=O)[C@H](CCCCN)NC(=O)[C@@H](CCCCN)NC(=O)[C@H](CCCCN)NC(=O)[C@@H](Cc2ccccc2)NC(=O)[C@H](CC(C)C)NC(=O)[C@@H](Cc2ccccc2)NC1=O [SEQ ID NO:51, [KKKFLFLF]] (cyclo(K[dK]K[dF]L[dF]L[dF]))
RBC Hemolysis (HD50) (murine red blood cells): >300
MRSA (in vitro activity) [1]: 18
VRE (in vitro activity) [2, 3]: 75

CC(C)C[C@H]1NC(=O)[C@H](CCCCN)NC(=O)[C@@H](CCCNC(=N)N)NC(=O)[C@H](CCCCN)NC(=O)[C@@H](CC(C)C)NC(=O)[C@H](Cc2ccccc2)NC(=O)[C@@H](CC(C)C)NC(=O)[C@H](Cc2ccccc2)NC1=O [SEQ ID NO:52, [KRKLFLFL]] (cyclo(K[dR]K[dL]F[dL]F[dL]))
RBC Hemolysis (HD50) (murine red blood cells): >180
MRSA (in vitro activity) [1]: 11
VRE (in vitro activity) [2, 3]: 22

CC(C)C[C@H]1NC(=O)[C@H](C)NC(=O)[C@@H](CC(C)C)NC(=O)[C@H](CCCCN)NC(=O)[C@@H](CO)NC(=O)[C@H](CCCCN)NC(=O)[C@@H](CC(C)C)NC(=O)[C@H](C)NC1=O [SEQ ID NO:53, [KSKLALAL]] (cyclo(K[dS]K[dL]A[dL]A[dL]))
RBC Hemolysis (HD50) (murine red blood cells): >280
MRSA (in vitro activity) [1]: 35
VRE (in vitro activity) [2, 3]: >280

CC(C)C[C@H]1NC(=O)[C@H](CCCCN)NC(=O)[C@@H](CO)NC(=O)[C@H](CCCCN)NC(=O)[C@@H](CC(C)C)NC(=O)[C@H](Cc2ccccc2)NC(=O)[C@@H](CC(C)C)NC(=O)[C@H](Cc2ccccc2)NC1=O [SEQ ID NO:54, [KSKLFLFL]] (cyclo(F[dL]F[dL]K[dS]K[dL]))
RBC Hemolysis (HD50) (murine red blood cells): >200
MRSA (in vitro activity) ([1]; listed as [KSKLFLFL] (54)): 50
VRE (in vitro activity) [2, 3]: 200

CC(C)C[C@H]1NC(=O)CNC(=O)[C@@H](CC(C)C)NC(=O)[C@H](CCCCN)NC(=O)[C@@H](CO)NC(=O)[C@H](CCCCN)NC(=O)[C@@H](CC(C)C)NC(=O)CNC1=O [SEQ ID NO:56, [KSKLGLGL]] (cyclo(K[dS]K[dL]G[dL]G[dL]))
RBC Hemolysis (HD50) (murine red blood cells): >240
MRSA (in vitro activity) [1]: >240
VRE (in vitro activity) [2, 3]: >240

CC[C@H](C)[C@@H]1NC(=O)[C@@H](CC(C)C)NC(=O)[C@H](CCCCN)NC(=O)[C@@H](CO)NC(=O)[C@H](CCCCN)NC(=O)[C@@H](CC(C)C)NC(=O)[C@H]([C@@H](C)CC)NC(=O)[C@@H](CC(C)C)NC1=O [SEQ ID NO:57, [KSKLILIL]] (cyclo(I[dL]I[dL]K[dS]K[dL]))
RBC Hemolysis (HD50) (murine red blood cells): >200
MRSA (in vitro activity) ([1]; listed as [KSKLILIL] (57)): 200
VRE (in vitro activity) [2, 3]: >200

CCCC[C@@H]1NC(=O)[C@@H](CC(C)C)NC(=O)[C@H](CCCCN)NC(=O)[C@@H](CO)NC(=O)[C@H](CCCCN)NC(=O)[C@@H](CC(C)C)NC(=O)[C@H](CCCC)NC(=O)[C@@H](CC(C)C)NC1=O [SEQ ID NO:59, [KSKLNleLNleL]] (cyclo(K[dS]K[dL][Nle][dL][Nle][dL]))
RBC Hemolysis (HD50) (murine red blood cells): >220
MRSA (in vitro activity) [1]: 220
VRE (in vitro activity) [2, 3]: >200

CC(C)C[C@H]1NC(=O)[C@H](CCCCN)NC(=O)[C@@H](CO)NC(=O)[C@H](CCCCN)NC(=O)[C@@H](CC(C)C)NC(=O)[C@H](C(C)C)NC(=O)[C@@H](CC(C)C)NC(=O)[C@H](C(C)C)NC1=O [SEQ ID NO:60, [KSKLVLVL]] (cyclo(K[dS]K[dL]V[dL]V[dL]))
RBC Hemolysis (HD50) (murine red blood cells): >220
MRSA (in vitro activity) [1]: >220
VRE (in vitro activity) [2, 3]: >220

CC(C)C[C@H]1NC(=O)[C@H](CCCCN)NC(=O)[C@@H](CO)NC(=O)[C@H](CCCCN)NC(=O)[C@@H](CC(C)C)NC(=O)[C@H](Cc2c[nH]c3ccccc23)NC(=O)[C@@H](CC(C)C)NC(=O)[C@H](Cc2c[nH]c3ccccc23)NC1=O [SEQ ID NO:61, [KSKLWLWL]] (cyclo(K[dS]K[dL]W[dL]W[dL]))
RBC Hemolysis (HD50) (murine red blood cells): 125
MRSA (in vitro activity) [1]: 15
VRE (in vitro activity) [2, 3]: 15

CC(C)C[C@H]1NC(=O)[C@H](CCCCN)NC(=O)[C@@H](CO)NC(=O)[C@H](CCCCN)NC(=O)[C@@H](CC(C)C)NC(=O)[C@H](Cc2ccc(O)cc2)NC(=O)[C@@H](CC(C)C)NC(=O)[C@H](Cc2ccc(O)cc2)NC1=O [SEQ ID NO:62, [KSKLYLYL]] (cyclo(K[dS]K[dL]Y[dL]Y[dL]))
RBC Hemolysis (HD50) (murine red blood cells): >200
MRSA (in vitro activity) [1]: 100
VRE (in vitro activity) [2, 3]: 200

CC(C)C[C@H]1NC(=O)[C@H](C)NC(=O)[C@@H](CC(C)C)NC(=O)[C@H](CCCCN)NC(=O)[C@@H]([C@H](C)O)NC(=O)[C@H](CCCCN)NC(=O)[C@@H](CC(C)C)NC(=O)[C@H](C)NC1=O [SEQ ID NO:64, [KTKLALAL]] (cyclo(K[dT]K[dL]A[dL]A[dL]))
RBC Hemolysis (HD50) (murine red blood cells): >160
MRSA (in vitro activity) [1]: 80
VRE (in vitro activity) [2, 3]: >160

CC(C)C[C@H]1NC(=O)[C@H](Cc2ccccc2)NC(=O)[C@@H](CC(C)C)NC(=O)[C@H](CCCCN)NC(=O)[C@@H]([C@H](C)O)NC(=O)[C@H](CCCCN)NC(=O)[C@@H](CC(C)C)NC(=O)[C@H](Cc2ccccc2)NC1=O [SEQ ID NO:65, [KTKLFLFL]] (cyclo(K[dT]K[dL]F[dL]F[dL]))
RBC Hemolysis (HD50) (murine red blood cells): >240
MRSA (in vitro activity) [1]: 60
VRE (in vitro activity) [2, 3]: >240

CC(C)C[C@H]1NC(=O)[C@H](Cc2c[nH]c3ccccc23)NC(=O)[C@@H](CC(C)C)NC(=O)[C@H](CCCCN)NC(=O)[C@@H]([C@H](C)O)NC(=O)[C@H](CCCCN)NC(=O)[C@@H](CC(C)C)NC(=O)[C@H](Cc2c[nH]c3ccccc23)NC1=O [SEQ ID NO:66, [KTKLWLWL]] (cyclo(K[dT]K[dL]W[dL]W[dL]))
RBC Hemolysis (HD50) (murine red blood cells): 150
MRSA (in vitro activity) [1]: 18
VRE (in vitro activity) [2, 3]: 18

CC(C)C[C@H]1NC(=O)[C@H](Cc2c[nH]c3ccccc23)NC(=O)[C@@H](Cc2c[nH]c3ccccc23)NC(=O)[C@H](CCCCN)NC(=O)[C@@H](CO)NC(=O)[C@H](CCCCN)NC(=O)[C@@H](CC(C)C)NC(=O)[C@H](Cc2c[nH]c3ccccc23)NC1=O [SEQ ID NO:67, [KWWLWLKS]] (cyclo(K[dW]W[dL]W[dL]K[dS]))
RBC Hemolysis (HD50) (murine red blood cells): >153
MRSA (in vitro activity) [1]: 7
VRE (in vitro activity) ([2]; media b: MHBII): 10

CC(C)C[C@@H]1NC(=O)[C@@H](Cc2c[nH]c3ccccc23)NC(=O)[C@H](Cc2ccccc2)NC(=O)[C@@H](CCCNC(=N)N)NC(=O)[C@H](CCC(N)=O)NC(=O)[C@@H](CCCNC(=N)N)NC(=O)[C@H](Cc2c[nH]c3ccccc23)NC(=O)[C@@H](Cc2c[nH]c3ccccc23)NC1=O [SEQ ID NO:68, [QRFWLWWR]] (cyclo(Q[dR]F[dW]L[dW]W[dR]))
RBC Hemolysis (HD50) (murine red blood cells): 60
MRSA (in vitro activity) [1]: 7.5
VRE (in vitro activity) ([2]; media b: MHBII): 3.8

— patent US20050107289A1, “Anti-microbial peptides and compositions” (priority 2001, published 2005)
